Patent publication US11284623B2 (priority 2012, dated 2022)
Read-outs that look alike come from different tables or passages of the source.

Columns and labels:
Format in all cases: in vivo
[1] = tested on: Rhizoctonia solani (AG 2); test: Use example FG-8: root mass affected by R. solani, pot trials, seed treatment; details: 10 g ai per 100 kg seeds; corn infected with R. solani
Description: (§1) Triticonazole was applied as commercial seed treatment formulation PREMIS 25 FS (25 g/L a.i., BASF SE, Ludwigshafen, Germany). Pyraclostrobin was applied as commercial seed treatment formulation STAMINA (200 g/L a.i., BASF SE, Ludwigshafen, Germany).
In 4 pot tests in the greenhouse in Limburgerhof, Bacillus subtilis MBI600, as SC formulation of spores with CFU of about 4×10^11 per ml, was tested in the crops corn and rape seed against different pathogens (Fusarium, Rhizoctonia, Scleroftinia) as solo product and in combination with triticonazole or pyraclostrobin. The application of the different products was done as seed treatment and the seeds were treated in the BASF Seed Solutions Technology Center (SSTC) Limburgerhof using a batch lab treater. […]
(§2) The expected efficacies of active compound combinations were determined using Colby's formula (Colby, S. R. “Calculating synergistic and antagonistic responses of herbicide combinations”, Weeds 15, pp. 20-22, 1967) and compared with the observed efficacies. […]
For the assessment, the roots were washed out to evaluate the disease symptoms on the roots. […] In corn in addition the disease symptoms on the first leaf were evaluated according to a 2 class evaluation. The figures from the class evaluation were converted into efficacies in % of the untreated control and the efficacy (E) was calculated as follows using Abbot's formula.

[2] = tested on: Rhizoctonia solani (AG 2); test: Use example FG-8: efficacy against R. solani assessed on first leaf, pot trials, seed treatment; details: 10 g ai per 100 kg seeds, corn
Description: as §1
(§3) In 4 pot tests in the greenhouse in Limburgerhof, Bacillus subtilis MBI600, as SC formulation of spores with CFU of about 4×10^11 per ml, was tested in the crops corn and rape seed against different pathogens (Fusarium, Rhizoctonia, Scleroftinia) as solo product and in combination with triticonazole or pyraclostrobin. […]
(§4) The efficacy (E) was calculated using the Abbot's formula: E=(1−α/β)·100 • α corresponds to the fungicidal infection of the treated plants in % and • β corresponds to the fungicidal infection of the untreated (control) plants in %
as §2
(§5) For the assessment, the roots were washed out to evaluate the disease symptoms on the roots. […] In corn in addition the disease symptoms on the first leaf were evaluated according to a 2 class evaluation. […]

[3] = tested on: Rhizoctonia solani (AG 2); test: Use example FG-8: efficacy against R. solani on roots, pot trials, seed treatment; details: 10 g ai per 100 kg seeds
Description: as §1, §3, §4, §2, §5

Fusarium graminearum [4] = details: 5 g ai per 100 kg seeds; corn, lower roots; % of untreated control (Abbot)
Fusarium graminearum [5] = details: 5 g ai per 100 kg seeds; corn, mesocotyl

| SMILES | Root mass in % of uninfected control [1] [%] | Observed efficacy (%) [2] [%] | Observed efficacy (%) [3] [%] | Observed efficacy (Fusarium graminearum [4]) [%] | Observed efficacy (Fusarium graminearum [5]) [%] |
| --- | --- | --- | --- | --- | --- |
| COC(=O)N(OC)c1ccccc1COc1ccn(-c2ccc(Cl)cc2)n1 [Pyraclostrobin] | 23.3 | 1.9 | 28.7 | – | – |
| CC1(C)CCC(=Cc2ccc(Cl)cc2)C1(O)Cn1cncn1 (centres unmarked) [Triticonazole] | – | – | – | 39.8 | 60 |
